Data reported in patent US10357486B2, “Treatment of cognitive impairment with PDE4 inhibitor” (Universiteit Maastricht, priority 2013, dated 2019).

System: healthy adults (18 to 35 years)
Assay: Spatial Memory Task, Stroop task and Continuous Performance task in healthy adults
Assay type: in vivo, human
Conditions: 100 mcg, 300 mcg, 1000 mcg single administration
Method: In addition to the VLT (immediate recall and delayed recall), the subjects were also tested in the Spatial Memory Task, the Stroop task and the Continuous Performance task (a description of these additional cognitive battery tests can be found in Example 3).
Spatial memory task (SMT) The spatial memory task assesses spatial memory and is based on the object relocation task by Postma and colleagues (Kessels, Postma et al, Behav Res Methods Instrum Comput. 1999, Vol 31(3) pp 423-428). It consists of one immediate and two delayed conditions. In the immediate condition, a set of 10 pictures will be presented one by one on different locations within a white square on a computer screen. All pictures are everyday, easy-to-name objects, presented in gray scale (±3.5×5 cm). Each picture will be presented for 2000 msec with an interstimulus interval of 1000 msec. […]
Twenty-four hours after the immediate condition, subjects will return to the lab and perform the task again. […] As with the other tests, the EEG will be recorded during this task and this will later be analysed. No EEG will be recorded during the 24h-measurement. […]
Stroop task The Stroop task is well known for its ability to induce interference, and assesses response inhibition and focused attention. […] However, because of the urge to read the printed words (even if one is asked to ignore them) interference occurs. […]

O=C(Nc1c(Cl)cncc1Cl)c1ccc(OC(F)F)c(OCC2CC2)c1 [roflumilast, N-(3,5-dichloropyridin-4-yl)-3-cyclopropylmethoxy-4-difluoromethoxybenzamide]
difference between placebo and drug treatment in the Spatial Memory Task, the Stroop task and the Continuous Performance task: No statistically significant differences
